Test results reported in patent publication US20240226107A1, “UBIQUITIN-SPECIFIC PROTEASE 1 (USP1) INHIBITOR” (SIMCERE ZAIMING PHARMACEUTICAL CO., LTD., priority 2021, published 2024).
Converted amounts (≈) assume the structure as drawn.

Key:
[1] = Metabolic stability in vitro in rat hepatocytes; assay type: in vitro ADME; conditions: read-out: Intrinsic clearance
Procedure: The concentration of each compound in the reaction system was measured by LC/MS/MS to calculate the intrinsic clearance of the compounds to be tested, and evaluate the metabolic stability in vitro in rat hepatocytes.
To the incubation plate, 198 μL of 0.5×10^6 cells/mL rat hepatocyte mixture and 2.0 μL of 100 μM compound to be tested or positive control were added to initiate reaction. Incubation was performed at 900 rpm at 37° C. […] Then the mixture was vortex-mixed for 5 min. […] Then 100 μL of supernatant of each compound was transferred to a 96-well sample plate, and 100 μL of purified water was added to dilute the sample. The resulting samples were quantified by ion chromatograms. The residual rate was calculated from peak areas of the compounds to be tested or the positive control. The slope k was determined using Microsoft Excel by linear regression of natural logarithm of the residual rate to the incubation time. The intrinsic clearance (in vitro CLint, μL/min/10^6 cells) was calculated from the slope value according to the following equation: […]

[2] = molecular target: USP1 (Recombinant Human His6-USP1/His6-UAF1 Complex Protein) (Homo sapiens (Human), UniProt O94782); experiment: In vitro activity assay for USP1 (Ub-CHOP2-Reporter deubiquitination assay); assay type: biochemical; conditions: 0.5 h incubation at room temperature, read-out: In vitro inhibitory activity of USP1 IC50
Chain of USP1 (Recombinant Human His6-USP1/His6-UAF1 Complex Protein) (O94782 whole entry): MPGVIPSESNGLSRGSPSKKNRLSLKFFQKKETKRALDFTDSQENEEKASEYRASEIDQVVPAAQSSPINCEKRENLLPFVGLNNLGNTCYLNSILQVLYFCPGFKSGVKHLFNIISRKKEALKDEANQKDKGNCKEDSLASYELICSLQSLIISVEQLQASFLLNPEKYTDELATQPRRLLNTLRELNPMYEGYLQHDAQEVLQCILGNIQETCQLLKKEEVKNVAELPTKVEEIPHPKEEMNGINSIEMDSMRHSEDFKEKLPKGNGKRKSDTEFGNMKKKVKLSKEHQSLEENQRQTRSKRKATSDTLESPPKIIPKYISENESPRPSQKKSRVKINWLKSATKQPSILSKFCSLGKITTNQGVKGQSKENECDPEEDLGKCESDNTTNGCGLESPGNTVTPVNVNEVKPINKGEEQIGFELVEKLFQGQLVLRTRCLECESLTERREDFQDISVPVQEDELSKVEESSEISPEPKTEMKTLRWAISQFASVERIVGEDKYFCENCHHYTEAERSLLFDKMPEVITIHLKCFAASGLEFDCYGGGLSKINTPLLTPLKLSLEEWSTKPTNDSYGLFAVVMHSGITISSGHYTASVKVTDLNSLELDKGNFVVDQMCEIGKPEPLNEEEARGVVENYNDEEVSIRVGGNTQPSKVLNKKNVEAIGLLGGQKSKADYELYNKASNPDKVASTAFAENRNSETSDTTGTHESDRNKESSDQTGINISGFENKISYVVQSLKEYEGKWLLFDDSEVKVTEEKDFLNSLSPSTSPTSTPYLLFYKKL
Chain of USP1 (Recombinant Human His6-USP1/His6-UAF1 Complex Protein) (Q8TAF3 whole entry partner): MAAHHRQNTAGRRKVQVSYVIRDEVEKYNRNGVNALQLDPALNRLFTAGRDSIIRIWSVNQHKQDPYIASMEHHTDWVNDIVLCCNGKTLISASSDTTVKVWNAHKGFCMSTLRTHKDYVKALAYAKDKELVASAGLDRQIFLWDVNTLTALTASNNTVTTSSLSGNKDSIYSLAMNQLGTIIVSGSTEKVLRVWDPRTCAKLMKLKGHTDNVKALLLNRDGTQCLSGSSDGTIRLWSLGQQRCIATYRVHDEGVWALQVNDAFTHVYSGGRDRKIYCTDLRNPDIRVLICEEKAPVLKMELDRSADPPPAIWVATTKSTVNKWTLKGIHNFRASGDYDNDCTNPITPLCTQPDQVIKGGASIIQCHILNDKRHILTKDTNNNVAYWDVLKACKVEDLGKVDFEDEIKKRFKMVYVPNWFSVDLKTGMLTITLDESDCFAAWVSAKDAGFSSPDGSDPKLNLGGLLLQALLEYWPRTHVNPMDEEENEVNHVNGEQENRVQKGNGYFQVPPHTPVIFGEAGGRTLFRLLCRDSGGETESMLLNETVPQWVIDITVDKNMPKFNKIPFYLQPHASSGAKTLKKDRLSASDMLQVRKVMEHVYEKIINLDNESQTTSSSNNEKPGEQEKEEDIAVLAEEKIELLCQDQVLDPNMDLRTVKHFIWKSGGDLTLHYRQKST
In short: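 His6-USP1/His6-UAF1 complex was mixed with compound in 20 mM Tris-HCl pH 8.0, 2 mM CaCl2, 2 mM β-mercaptoethanol and 0.05% CHAPS. Ub-CHOP2 reporter system plus substrate was added, then incubated 0.5 h at room temperature. IC50 came from a four-parameter logistic fit.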

[3] = Metabolic stability in vitro in human hepatocytes; assay type: in vitro ADME; conditions: read-out: Intrinsic clearance
Procedure: The concentration of each compound in the reaction system was measured by LC/MS/MS to calculate the intrinsic clearance of the compounds to be tested, and evaluate the metabolic stability in vitro in human hepatocytes.
To the incubation plate, 198 μL of 0.5×10^6 cells/mL human hepatocyte mixture and 2.0 μL of 100 μM compound to be tested or positive control were added to initiate reaction. Incubation was performed at 900 rpm at 37° C. […] Then the mixture was vortex-mixed for 5 min. […] Then 100 μL of supernatant of each compound was transferred to a 96-well sample plate, and 100 μL of purified water was added to dilute the sample.
The resulting samples were quantified by ion chromatograms. The residual rate was calculated from peak areas of the compounds to be tested or the positive control. The slope k was determined using Microsoft Excel by linear regression of natural logarithm of the residual rate to the incubation time. The intrinsic clearance (in vitro CLint, μL/min/10^6 cells) was calculated from the slope value according to the following equation: […]

[4] = tested on: MDA-MB-436 cells;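 note: MDA-MB-436 proliferation over 7 days with compound, viability read as ATP luminescence (CellTiter-Glo), inhibition relative to DMSO-only wells, day 0 signal as background, GI50 from four-parameter fit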
Procedure: Assay based on CellTiter-Glo luminescent cell viability assay system.
The assay kit (CellTiter-Glo® Luminescent Cell Viability Assay) was purchased from Promega, with Cat. No. of G7573, and was stored at −30° C. after subpackage. The kit is a homogeneous assay method for assaying the number of viable cells in a culture based on quantitative determination of ATP. The kit produces a luminescence signal proportional to the amount of ATP present, and the amount of ATP is directly proportional to the number of cells in the culture.
The cultured cells were trypsinized, collected and centrifuged, then resuspended at an adjusted concentration in a culture solution (DMEM+10% FBS), and cultured overnight on a 384-well plate (400 cells/20 μl/well) in a cell incubator with 5% CO2 at 37° C. An ECHO instrument was used to added the compound and pure DMSO onto each well of the 384-well plate. The total volume of the compound and DMSO is 100 nL, and the instrument obtains gradient diluted sample concentrations through different ratios. To each well, 30 μL of culture solution was added, and after mixing by centrifugal oscillation and re-centrifugation, the cells were cultured in a cell incubator for 7 days (one column of cells was subjected to CTG assay on the day of dosing). After day 7, 25 μL of CTG assay solution was added to each well, and after mixing by centrifugal oscillation and re-centrifugation, the cells were placed at room temperature away from light for 10 min. In terms of chemiluminescence signals, an Envision plate reader (PerkinElmer, emission wavelength: 400-700 nm) was used to measure a signal in each well. The chemiluminescence value [RLU]cpd on day 7 was obtained for the treatment group, the chemiluminescence value [RLU]cell on day 7 was obtained for the non-treatment group (given DMSO only), and the chemiluminescence value [RLU]background on day 0 was obtained for the parallel non-treatment group (given DMSO only) by CTG assay on day 0. […] In the following equation, x represents the concentration of the compound in a logarithmic form; and F(x) represents an effect value (inhibition rate of proliferation at the concentration): F(x)=(A+((B−A)/(1+((C/x)^D)))). A, B, C, and D are four parameters.

[5] = molecular target: PXR (Homo sapiens (Human), UniProt O75469); experiment: Potential for PXR activation in DPX2 cells; assay type: cell-based; conditions: versus 20 μM rifampicin
Chain of PXR (O75469 whole entry): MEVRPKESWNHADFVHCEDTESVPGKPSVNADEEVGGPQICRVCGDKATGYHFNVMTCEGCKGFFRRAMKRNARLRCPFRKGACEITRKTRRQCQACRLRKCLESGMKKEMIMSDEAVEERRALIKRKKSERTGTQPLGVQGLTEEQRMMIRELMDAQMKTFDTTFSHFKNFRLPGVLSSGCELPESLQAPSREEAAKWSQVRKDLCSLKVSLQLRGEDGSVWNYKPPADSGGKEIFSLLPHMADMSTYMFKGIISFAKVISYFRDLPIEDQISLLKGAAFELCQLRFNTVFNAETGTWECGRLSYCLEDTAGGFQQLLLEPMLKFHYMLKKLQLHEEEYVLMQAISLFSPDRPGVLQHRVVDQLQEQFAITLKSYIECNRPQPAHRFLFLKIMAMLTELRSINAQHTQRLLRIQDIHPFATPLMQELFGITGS
Procedure: DMSO solutions of the compounds to be tested and the control compound rifampicin solution were prepared, and diluted with Puracyp dosing medium (Puracyp, Cat. No: D-500-100) at 37° C. to respective test concentrations. The final concentrations of the compounds to be tested were 30 μM, 10 μM, and 1 μM, respectively, and the final concentration of rifampicin was 20 μM. The final concentration of DMSO in the test solution was 0.1%. In addition, 0.1% DMSO solution prepared with Puracyp dosing medium was used as a control.
DPX2 cells were suspended in Puracyp Culture medium (Puracyp, Cat No.: C-500-100) at a cell density of 4.5×10^5 cell/mL. Then, the suspension was placed on a 96-well culture plate at 100 μL/well for incubation at 37° C. for 24 h. The medium in appropriate wells of the 96-well culture plate was replaced (three times per well) by 100 μL of solution of the compounds to be tested and a control compound solution. After replacement, the plate was incubated at 37° C. for 24 h. The medium was then replaced (three times per well) by a newly prepared test solution of the compounds to be tested and a rifampicin test solution, and the plate was incubated at 37° C. for 24 h.
The medium in the 96-well culture plate was pipetted and washed twice with PBS. To each well, 50 μL of reagent diluted as required by CellTiter-Fluor™ Cell Viability Assay Kit (Promega, Cat. No.: G6082) was added, and incubated at 37° C. for 0.5 h. The 96-well plate was cooled to room temperature, and the fluorescence value of each well at 505 nm was measured in a fluorescence mode with a microplate reader at an excitation wavelength of 400 nm. Then, 50 μL of reagent prepared as required by One-Glo Luciferase Assay System (Promega, Cat. No.: E6120) was added to each well, and the mixture was incubated at room temperature for 5 min. The luminescence value of each well was read by using a lumen meter.
Normalized luciferase activity was determined by RLU/RFU, and the RLU and RFU of the samples were mean values of duplicate wells, respectively.
[formula] • Fold of activation: fold of activation of normalized luciferase; • RLUtest: measured luminescence value of test wells at each test dose of test compounds; • RLUvehicle: measured luminescence value of test wells when tested with the control DMSO solution; • RFUtest: measured fluorescence value of test wells at each test dose of test compounds; • RFUvehicle: measured fluorescence value of test wells when tested with the control DMSO solution.
The percentage of positive control was calculated as follows:
% Positive control=(fold activationtest compound−1)/(fold activationpositive control compound−1)×100% • % Positive control: percentage of PXR activation compared with 20 μM rifampicin activation at each test dose of test compounds; • Fold activationtest compound: fold of activation of normalized luciferase at each test dose of test compounds; • Fold activationpositive control compound: fold of activation of normalized luciferase of test compounds under 20 μM rifampicin.

[6] = Solubility (PBS pH 7.4) of compounds from DMSO solution; assay type: physicochemical; conditions: aqueous buffer, kinetic from dmso stock, 10 mM DMSO solution into PBS pH 7.4, 25° C., read-out: Calculated solubility
Procedure: The solubility (PBS pH 7.4) of a compound to be tested was determined by LC/MS/MS. 6 μL of 10 mM DMSO solution of the compound to be tested was mixed with 194 μL of DMSO to prepare 300 μM compound solution. In 490 μL of water and acetonitrile (1:1) containing an internal standard, 5 μL of the solution and 5 μL of PBS pH 7.4 solution were mixed to prepare 3 μM standard concentration solution of the sample to be tested. The dilution factor of the standard solution can be adjusted according to the strength of response signals in LC/MS.
To 485 μL of PBS pH 7.4 solution, 15 μL of 10 mM DMSO solution of the compound to be tested was added. […] After shaking, the stir bar was removed, and the sample was transferred to a filter plate and filtered using a vacuum manifold. In 490 μL of water and acetonitrile (1:1) containing an internal standard, 5 μL of filtrate and 5 μL of PBS pH 7.4 solution were mixed to prepare a solution to be tested. The dilution factor can be adjusted according to the solubility value and the strength of response signals in LC/MS.
The resulting samples were determined by LC/MS/MS. The sample solubility was calculated from peak areas of the solution of the compound to be tested and the standard concentration solution, according to the following equation:
[formula] • [Sample] is the solubility of the sample to be tested; • Area ratiosample is the ratio of the peak area of sample in the sample to be tested to the peak area of the internal standard; • INJ VOL STD is the injection volume of the standard concentration solution; • DFsample is the dilution factor of the solution of the sample to be tested; • [STD] is the concentration of the standard concentration solution; • INJ VOLsample is the injection volume of the solution of the sample to be tested; and • Area ratio STD is the ratio of the peak area of sample in the standard concentration solution to the peak area of the internal standard.

[7] = Caco-2 permeability assay; assay type: in vitro ADME; conditions: human, pH 7.4, Caco-2, 5 μM, 2 h
Procedure: The apparent permeability coefficient (Papp) of the analytical drug was determined by liquid chromatography-mass spectrometry (LC-MS/MS) through a Caco-2 cell model.
In this test example, Caco-2 cells were purchased from American Type Culture Collection (ATCC); 4-hydroxyethyl piperazine ethane sulfonic acid (HEPES) was purchased from Beijing Solarbio Science & Technology Co., Ltd.; Hanks' balanced salt solution (HBSS) and non-essential amino acids (NEAA) were purchased from ThermoFisher Scientific; penicillin, streptomycin, and trypsin/EDTA were purchased from Solarbio; fetal bovine serum (FBS) and DMEM medium were purchased from Corning; HTS-96-well Transwell plates and other sterile consumables were purchased from Corning; Millicell resistance measuring system was purchased from Millipore; Cellometer®K2 was purchased from Nexcelom Bioscience; Infinite 200 PRO microplate reader was purchased from Tecan; and MTS2/4 orbital shaker was purchased from IKA Labortechnik.
Caco-2 cells were cultured in a culture flask. […] Cells at a confluency of 70-90% can be used to inoculate the Transwell. Prior to cell inoculation, 50 μL of cell culture medium was added to each well of the upper Transwell chamber and 25 mL of cell culture medium was added to the lower plate. The plate was incubated in an incubator (37° C., 5% CO2) for 1 h, and then inoculated with cells. After cell digestion, the cell suspension was pipetted and transferred to a round bottom centrifuge tube for centrifugation at 120 g for 5 min. […] The medium was changed as follows: transwell chambers were separated from the receiver plate, medium in the receiver plate was discarded, then medium in the Transwell chambers was discarded, and finally, 75 μL of fresh medium was added to each chamber, and 25 mL of fresh medium was added to the receiver plate.
After approximately 14 days of culture, the Caco-2 cells reached the confluency and completed differentiation. In this case, the cells can be applied to permeability assay. The monolayer resistance was measured with a resistance meter (Millipore, USA) and the resistance per well was recorded. After the measurement, the Transwell plate was put back to the incubator. Calculation of resistance: measured resistance value (ohms)×membrane area (cm^2)=TEER value (ohm·cm^2); if TEER value <230 ohms·cm^2, the well can not be used for permeability assay.
In 900 mL of purified water, 2.38 g HEPES and 0.35 g sodium bicarbonate were dissolved, then 100 mL of 10×HBSS was added and stirred well, pH was adjusted to 7.4, and finally, the resulting solution was filtered to obtain 1 L of transport buffer (HBSS, 10 mM HEPES, pH 7.4).
A DMSO stock solution of 1 mM of compound to be tested was diluted with the transport buffer to obtain 5 μM test solution. The control compound digoxin or minoxidil was diluted with DMSO to 2 mM, and diluted with the transport buffer described above to 10 μM to obtain a control compound test solution. In addition, DMSO was also diluted with the transport buffer described above to a receiving end solution containing 0.5% DMSO.
The Transwell plate was removed from the incubator. Monolayer cell membranes were rinsed twice with the transport buffer (10 mM HEPES, pH 7.4) and incubated at 37° C. for 30 min.
The transport rate of the compound from the apical side to the basolateral side was determined. […]
The transport rate of the compound from the basolateral side to the apical side was determined.

[8] = In vivo pharmacokinetics in SD rats; conditions: male, rat, plasma
Procedure: Using SD rats as test animals, drug concentrations in plasma of the rats at different times after intravenous injection and intragastric administration of the compounds provided in the present application were determined by LC/MS/MS. In vivo pharmacokinetic behaviors of the compounds provided in the present application in rats were investigated to evaluate pharmacokinetic characteristics of the compounds.
There were three healthy 6-8-week-old male SD rats in each group.
Intravenous administration: A certain amount of drug was weighed, and then 10 vol % N,N-dimethylacetamide, 33 vol % triethylene glycol, and 57 vol % physiological saline were added to prepare 1 mg/mL colorless clear and transparent liquid;
Intragastric administration: A certain amount of drug was weighed, and then 0.5 wt % hydroxypropyl methylcellulose, 0.1 vol % tween 80, and 99.6 vol % physiological saline were added to prepare 1 mg/mL white suspension.
After fasting overnight, the SD rats were dosed intravenously or intragastrically.
The compounds provided in the present application were administered intravenously to the rats, then 0.2 mL of blood was collected from jugular veins respectively at 0.083, 0.25, 0.5, 1, 2, 4, 8, and 24 h after the administration, and placed in a test tube containing EDTA-K2. The test tube was then centrifuged at 4000 rpm at 4° C. for 5 min to separate plasma, and the plasma was stored at −75° C. Alternatively, the compounds provided in the present application were administered intragastrically to the rats, then 0.2 mL of blood was collected from jugular veins respectively at 0.25, 0.5, 1, 2, 4, 8, and 24 h after the administration, and placed in a test tube containing EDTA-K2. The test tube was then centrifuged at 3500 rpm at 4° C. for 10 min to separate plasma, and the plasma was stored at −75° C.
The content of the compounds to be tested in rat plasma after intravenous administration or intragastric administration at different concentrations was determined: 30 μL of rat plasma at each time after administration was taken, 200 μL (50 ng/mL) of solution of internal standard dexamethasone in acetonitrile was added, then the resulting mixture was vortex-mixed for 30 s, and centrifuged at 4700 rpm at 4° C. for 15 min, the supernatant of plasma samples was diluted three times with water, and 2.0 μL of diluted solution was taken for LC-MS/MS.

SMILES	hepatocyte CLint at 1 μM [1]	IC50 [2]	hepatocyte CLint at 1 μM [3]	GI50 [4]	PXR activation (% Positive control) ([5]; 10 μM)	also measured
COc1ncnc(C2CC2)c1-c1ncc2c(n1)N(Cc1ccc(-c3nc(C(F)(F)F)cn3C)cc1)C(=O)C(C)(C)O2 [Compound 22, 2-(4-cyclopropyl-6-methoxypyrimidin-5-yl)-6,6-dimethyl-8-(4-(1-methyl-4-(trifluoromethyl)-1H-imidazol-2-yl)benzyl)-6H-pyrimido[5,4-b][1,4]oxazin-7(8H)-one]	6.4 µL/min/1e6 cells	14.3 nM	4.85 µL/min/1e6 cells	19.9 nM	–	–
COc1ncnc(C2CC2)c1-c1ncc2c(n1)N(Cc1ccc(-n3nc(C(F)(F)F)cc3C)cc1)CC(=O)N2C [Compound 43, 2-(4-cyclopropyl-6-methoxypyrimidin-5-yl)-5-methyl-8-(4-(5-methyl-3-(trifluoromethyl)-1H-pyrazol-1-yl)benzyl)-7,8-dihydropteridin-6(5H)-one]	–	22.6 nM	–	32.6 nM	3.2 % Positive control	–
COc1ncnc(C2CC2)c1-c1ncc2c(n1)N(Cc1ccc3c(c1)CCCn1cc(C(F)(F)F)nc1-3)CC(=O)N2C [Compound 45, 2-(4-cyclopropyl-6-methoxypyrimidin-5-yl)-5-methyl-8-((2-(trifluoromethyl)-6,7-dihydro-5H-benzo[c]imidazo[1,2-a]azepin-9-yl)methyl)-7,8-dihydropteridin-6(5H)-one]	–	19.9 nM	4.26 µL/min/1e6 cells	53.2 nM	–	solubility at 2 h [6]: 88 µM (≈ 50.7 µg/mL)
COc1ncnc(C2CC2)c1-c1ncc2c(n1)N(Cc1ccc(-c3nc(C(F)(F)F)cn3C)cc1)C(=O)OC2(C)C [Compound 50, 7-(4-cyclopropyl-6-methoxypyrimidin-5-yl)-4,4-dimethyl-1-(4-(1-methyl-4-(trifluoromethyl)-1H-imidazol-2-yl)benzyl)-1,4-dihydro-2H-pyrimido[4,5-d][1,3]oxazin-2-one]	4 µL/min/1e6 cells	–	< 1 µL/min/1e6 cells	–	–	Papp A→B at 2 h, 5 μM ([7]; apical to basolateral): 7.5 ×10⁻⁶ cm/s; Papp B→A at 2 h, 5 μM ([7]; basolateral to apical): 17.3 ×10⁻⁶ cm/s; PXR activation (% Positive control) ([5]; 30 μM): 32.8 % Positive control; Vd ([8]; IV 2 mg/kg, read-out: Apparent volume of distribution Vss_obs): 4.1 L/kg; clearance ([8]; IV 2 mg/kg, read-out: Clearance CL_obs): 11.4 mL/min/kg; half-life ([8]; IV 2 mg/kg, read-out: Half-life period T1/2 (converted)): 6 h; bioavailability ([8]; PO 5 mg/kg versus IV, read-out: Bioavailability F): 47.2%; Cmax ([8]; PO 5 mg/kg, read-out: Maximum plasma concentration Cmax): 235 ng/mL
COc1ncnc(C2CC2)c1-c1ncc2c(n1)N(Cc1ccc(-c3nc(C(F)(F)F)cn3C)cc1)C(=O)OC21CC1 [Compound 52, 7′-(4-cyclopropyl-6-methoxypyrimidin-5-yl)-1′-(4-(1-methyl-4-(trifluoromethyl)-1H-imidazol-2-yl)benzyl)spiro[cyclopropane-1,4′-pyrimido[4,5-d][1,3]oxazine]-2′(1′H)-one]	–	23.2 nM	–	59.6 nM	20.9 % Positive control	–
